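Briefly, cells in 96-well plates were exposed to five compound concentrations for 48 h, and endpoints were estimated by linear interpolation. Abbreviation: GI50, concentration required for 50% inhibition of growth.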 Active and inactive are the calls of the source. Rule as the data show it: active = GI50 up to about 1.1 µM and inactive = higher.
Experiments:
Test in all cases: DTP human tumour cell line panel, 48 h
BT-549 = tested on: BT-549
COLO 205 = tested on: COLO 205
A549 = tested on: A549
OVCAR-3 = tested on: OVCAR-3
RPMI-8226 = tested on: RPMI-8226
TK-10 = tested on: TK-10
NCI-H23 = tested on: NCI-H23
MDA-MB-435 = tested on: MDA-MB-435
SN12C = tested on: SN12C
CAKI-1 = tested on: CAKI-1
CCRF-CEM = tested on: CCRF-CEM
HL-60 = tested on: HL-60
HT-29 = tested on: HT-29
NCI-H226 = tested on: NCI-H226
ACHN = tested on: ACHN
SNB-75 = tested on: SNB-75
SF-268 = tested on: SF-268
MDA-MB-231 = tested on: MDA-MB-231
SW-620 = tested on: SW-620
UACC-62 = tested on: UACC-62

In the case of `O=C1C(Cl)=C(N2CCN(c3ncccn3)CC2)C(=O)c2c(O)ccc(O)c21`, the GI50 (BT-549) is reported as 2.14 µM (inactive), the GI50 (COLO 205) is reported as 1.75 µM (inactive) and the GI50 (A549) is reported as 7.16 µM (inactive). The GI50 (OVCAR-3) was 1.72 µM (inactive), the GI50 (RPMI-8226) was 2.49 µM (inactive) and the GI50 (TK-10) was 1.89 µM (inactive). For the same molecule, the GI50 (NCI-H23) was 2.27 µM (inactive), the GI50 (MDA-MB-435) was 1.67 µM (inactive) and the GI50 (SN12C) was 1.85 µM (inactive). For the same molecule, the GI50 (CAKI-1) was 2.05 µM (inactive), the GI50 (CCRF-CEM) was 0.211 µM (active) and the GI50 (HL-60) was 0.0515 µM (active). For the same molecule, the GI50 (HT-29) was 2.98 µM (inactive), the GI50 (NCI-H226) was 21.8 µM (inactive) and the GI50 (ACHN) was 2.43 µM (inactive). The GI50 (SNB-75) was 9.02 µM (inactive), the GI50 (SF-268) was 3.15 µM (inactive) and the GI50 (MDA-MB-231) was 2.15 µM (inactive). For the same molecule, the GI50 (SW-620) was 1.36 µM (inactive) and the GI50 (UACC-62) was 2.59 µM (inactive).

`CCC(=O)Nc1cccc(/N=C/c2ccc(OC(=O)/C=C\c3ccccc3)cc2)c1` was tested, and the GI50 (BT-549) was 37 µM (inactive), the GI50 (COLO 205) was 64.7 µM (inactive) and the GI50 (A549) was 54 µM (inactive). The GI50 (OVCAR-3) was 43.7 µM (inactive), the GI50 (RPMI-8226) was 43.8 µM (inactive) and the GI50 (TK-10) was > 75 µM (inactive). The GI50 (NCI-H23) was > 75 µM (inactive), the GI50 (MDA-MB-435) was > 75 µM (inactive) and the GI50 (SN12C) was > 75 µM (inactive). For the same molecule, the GI50 (CAKI-1) was > 75 µM (inactive), the GI50 (CCRF-CEM) was > 75 µM (inactive) and the GI50 (HL-60) was > 75 µM (inactive). For the same molecule, the GI50 (HT-29) was 36.3 µM (inactive), the GI50 (NCI-H226) was 33.6 µM (inactive) and the GI50 (ACHN) was 39 µM (inactive). For the same molecule, the GI50 (SNB-75) was 12.3 µM (inactive), the GI50 (SF-268) was 36.7 µM (inactive) and the GI50 (MDA-MB-231) was 73.3 µM (inactive). The GI50 (SW-620) was > 75 µM (inactive) and the GI50 (UACC-62) was 30.8 µM (inactive).

In the case of `N=C(N)NS(=O)(=O)c1ccc(NC(=O)c2ccc3nc4ccccc4c(O)c3c2)cc1`, the GI50 (BT-549) is reported as > 100 µM (inactive), the GI50 (COLO 205) is reported as > 100 µM (inactive) and the GI50 (A549) is reported as > 100 µM (inactive). For the same molecule, the GI50 (OVCAR-3) was > 100 µM (inactive), the GI50 (RPMI-8226) was > 100 µM (inactive) and the GI50 (TK-10) was > 100 µM (inactive). The GI50 (NCI-H23) was > 100 µM (inactive), the GI50 (MDA-MB-435) was > 100 µM (inactive) and the GI50 (SN12C) was > 100 µM (inactive). For the same molecule, the GI50 (CAKI-1) was > 100 µM (inactive), the GI50 (CCRF-CEM) was > 100 µM (inactive) and the GI50 (HL-60) was > 100 µM (inactive). For the same molecule, the GI50 (HT-29) was > 100 µM (inactive), the GI50 (NCI-H226) was > 100 µM (inactive) and the GI50 (ACHN) was > 100 µM (inactive). The GI50 (SNB-75) was > 100 µM (inactive), the GI50 (SF-268) was > 100 µM (inactive) and the GI50 (MDA-MB-231) was > 100 µM (inactive). The GI50 (SW-620) was > 100 µM (inactive) and the GI50 (UACC-62) was > 100 µM (inactive).

`CC(=O)OCC1OC(n2cnc(C(N)=S)c2N)C(OC(C)=O)C1OC(C)=O` (stereo not given) was tested, and the GI50 (BT-549) was > 100 µM (inactive), the GI50 (COLO 205) was > 100 µM (inactive) and the GI50 (A549) was > 100 µM (inactive). For the same molecule, the GI50 (OVCAR-3) was > 100 µM (inactive), the GI50 (RPMI-8226) was > 100 µM (inactive) and the GI50 (TK-10) was > 100 µM (inactive). For the same molecule, the GI50 (NCI-H23) was > 100 µM (inactive), the GI50 (MDA-MB-435) was > 100 µM (inactive) and the GI50 (SN12C) was > 100 µM (inactive). The GI50 (CAKI-1) was > 100 µM (inactive), the GI50 (CCRF-CEM) was > 100 µM (inactive) and the GI50 (HL-60) was > 100 µM (inactive). For the same molecule, the GI50 (HT-29) was > 100 µM (inactive), the GI50 (NCI-H226) was > 100 µM (inactive) and the GI50 (ACHN) was > 100 µM (inactive). For the same molecule, the GI50 (SNB-75) was > 100 µM (inactive), the GI50 (SF-268) was > 100 µM (inactive) and the GI50 (MDA-MB-231) was > 100 µM (inactive). For the same molecule, the GI50 (SW-620) was > 100 µM (inactive) and the GI50 (UACC-62) was > 100 µM (inactive).

`COc1ccc(C2=Nn3c(nc4sc5c(c4c3=O)CCCC5)SC2)cc1` was tested, and the GI50 (BT-549) was > 100 µM (inactive), the GI50 (COLO 205) was > 100 µM (inactive) and the GI50 (A549) was > 100 µM (inactive). The GI50 (OVCAR-3) was > 100 µM (inactive), the GI50 (RPMI-8226) was > 100 µM (inactive) and the GI50 (TK-10) was 57.8 µM (inactive). The GI50 (NCI-H23) was > 100 µM (inactive), the GI50 (MDA-MB-435) was > 100 µM (inactive) and the GI50 (SN12C) was > 100 µM (inactive). The GI50 (CAKI-1) was > 100 µM (inactive), the GI50 (CCRF-CEM) was > 100 µM (inactive) and the GI50 (HL-60) was > 100 µM (inactive). For the same molecule, the GI50 (HT-29) was > 100 µM (inactive), the GI50 (NCI-H226) was > 100 µM (inactive) and the GI50 (ACHN) was > 100 µM (inactive). The GI50 (SNB-75) was > 10 µM (inactive), the GI50 (SF-268) was > 100 µM (inactive) and the GI50 (MDA-MB-231) was > 100 µM (inactive). For the same molecule, the GI50 (SW-620) was > 100 µM (inactive) and the GI50 (UACC-62) was > 100 µM (inactive).

With `COc1nc(N)nc2c1n(C)c[n+]2C` the GI50 (BT-549) was > 100 µM (inactive), the GI50 (COLO 205) was > 100 µM (inactive) and the GI50 (A549) was > 100 µM (inactive). For the same molecule, the GI50 (OVCAR-3) was > 100 µM (inactive), the GI50 (RPMI-8226) was > 100 µM (inactive) and the GI50 (TK-10) was > 100 µM (inactive). The GI50 (NCI-H23) was > 100 µM (inactive), the GI50 (MDA-MB-435) was > 100 µM (inactive) and the GI50 (SN12C) was > 100 µM (inactive). The GI50 (CAKI-1) was > 100 µM (inactive), the GI50 (CCRF-CEM) was > 100 µM (inactive) and the GI50 (HL-60) was > 100 µM (inactive). For the same molecule, the GI50 (HT-29) was > 100 µM (inactive), the GI50 (NCI-H226) was > 100 µM (inactive) and the GI50 (ACHN) was > 100 µM (inactive). The GI50 (SNB-75) was > 100 µM (inactive), the GI50 (SF-268) was > 100 µM (inactive) and the GI50 (MDA-MB-231) was > 100 µM (inactive). For the same molecule, the GI50 (SW-620) was > 100 µM (inactive) and the GI50 (UACC-62) was > 100 µM (inactive).

For `O=c1ccc2[n+]([O-])c3ccc(O)cc3oc-2c1` [RESAZURIN], the GI50 (BT-549) was 10.7 µM (inactive), the GI50 (COLO 205) was 12.9 µM (inactive) and the GI50 (A549) was 4.31 µM (inactive). The GI50 (OVCAR-3) was 13.2 µM (inactive), the GI50 (RPMI-8226) was 6.01 µM (inactive) and the GI50 (TK-10) was 36 µM (inactive). The GI50 (NCI-H23) was 2.56 µM (inactive), the GI50 (MDA-MB-435) was 1.89 µM (inactive) and the GI50 (SN12C) was 18.2 µM (inactive). The GI50 (CAKI-1) was 32.5 µM (inactive), the GI50 (CCRF-CEM) was 30 µM (inactive) and the GI50 (HL-60) was 23.1 µM (inactive). The GI50 (HT-29) was 19.6 µM (inactive), the GI50 (NCI-H226) was 21.1 µM (inactive) and the GI50 (ACHN) was 5.65 µM (inactive). The GI50 (SNB-75) was 3.45 µM (inactive), the GI50 (SF-268) was 19.2 µM (inactive) and the GI50 (MDA-MB-231) was 29.6 µM (inactive). The GI50 (SW-620) was 11.5 µM (inactive) and the GI50 (UACC-62) was 2.59 µM (inactive).

Reference: ChEMBL document CHEMBL1201862, “PubChem BioAssay data set” (2004)
